# Source: patent US20120083522A1, “MODULATION OF INFLAMMATORY RESPONSES BY FACTOR XI” (Isis Pharmaceuitcals, inc., priority 2009, published 2012)
# In the oligonucleotide strings, read from the 5' end, every base follows the letter of its sugar. An asterisk marks phosphorothioate; unmarked linkages are phosphodiester. Other units and linkages are bracketed, terminal groups are in braces. A string of capitals states the bases alone. e = 2'-O-(2-methoxyethyl) (MOE); [5mC] = 5-methylcytosine; d = 2'-deoxy (DNA)
# Key:
# Format in all cases: cell-based
# human Factor XI mRNA [1] = assay: Antisense inhibition in HepG2 cells by microwalk gapmers, 75 nM, lipofectin (Example 3); settings: HepG2 cells, 75 nM, oligonucleotides targeted to nucleobases 1275 to 1318 of SEQ ID NO: 1
# Method in brief: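 HepG2 cells (10,000 per well) were transfected with 75 nM gapmer using lipofectin and treated for about 24 h. Factor XI mRNA was quantified by real-time PCR, normalized to RiboGreen total RNA and expressed as percent inhibition versus untreated controls.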
# human Factor XI mRNA [2] = assay: Antisense inhibition in HepG2 cells by microwalk gapmers, 8,000 nM, electroporation (Example 14); settings: HepG2 cells, 8,000 nM
# Experimental: These microwalk gapmers were tested in vitro. Cultured HepG2 cells at a density of 20,000 cells per well were transfected using electroporation with 8,000 nM antisense oligonucleotide. After a treatment period of approximately 24 hours, RNA was isolated from the cells and Factor XI mRNA levels were measured by quantitative real-time PCR. Factor XI mRNA levels were adjusted according to total RNA content, as measured by RIBOGREEN. Results are presented as percent inhibition of Factor XI, relative to untreated control cells.
# The chimeric antisense oligonucleotides in Table 51 were designed as 5-10-5 MOE, 5-8-5 and 6-8-6 MOE gapmers. The first two listed gapmers in Table 51 are the original gapmers (ISIS 416850 and ISIS 416858) from which ISIS 445493-445543 were designed via microwalk, and are designated by an asterisk. The 5-10-5 gapmers are 20 nucleotides in length, wherein the central gap segment is comprised of ten 2′-deoxynucleotides and is flanked on both sides (in the 5′ and 3′ directions) by wings comprising five nucleotides each. The 5-8-5 gapmers are 18 nucleotides in length, wherein the central gap segment is comprised of eight 2′-deoxynucleotides and is flanked on both sides (in the 5′ and 3′ directions) by wings comprising five nucleotides each. The 6-8-6 gapmers are 20 nucleotides in length, wherein the central gap segment is comprised of eight 2′-deoxynucleotides and is flanked on both sides (in the 5′ and 3′ directions) by wings comprising six nucleotides each. For each of the motifs (5-10-5, 5-8-5 and 6-8-6), each nucleotide in the 5′ wing segment and each nucleotide in the 3′ wing segment has a 2′-MOE modification. The internucleoside linkages throughout each gapmer are phosphorothioate (P═S) linkages. All cytidine residues throughout each gapmer are 5-methylcytidines. “Human Target start site” indicates the 5′-most nucleotide to which the gapmer is targeted in the human sequence. “Human Target stop site” indicates the 3′-most nucleotide to which the gapmer is targeted in the human sequence. Each gapmer listed in Table 51 is targeted to SEQ ID NO: 1 (GENBANK Accession No. NM_000128.3). Each gapmer is Table 51 is also fully cross-reactive with the rhesus monkey Factor XI gene sequence, designated herein as SEQ ID NO: 274 (exons 1-15 GENBANK Accession No. NW—001118167.1). ‘Rhesus monkey start site’ indicates the 5′-most nucleotide to which the gapmer is targeted in the rhesus monkey sequence. ‘Rhesus monkey stop site’ indicates the 3′-most nucleotide to which the gapmer is targeted to the rhesus monkey sequence.
# human Factor XI mRNA [3] = assay: Dose-dependent inhibition and IC50 in HepG2 cells, electroporation (Example 15)
# Experimental: Cells were plated at a density of 20,000 cells per well and transfected using electroporation with 123.46 nM, 370.37 nM, 1,111.11 nM, 3,333.33 nM and 10,000 nM concentrations of antisense oligonucleotide, as specified in Table 52. After a treatment period of approximately 16 hours, RNA was isolated from the cells and Factor XI mRNA levels were measured by quantitative real-time PCR. Human Factor XI primer probe set RTS 2966 was used to measure mRNA levels. Factor XI mRNA levels were adjusted according to total RNA content, as measured by RIBOGREEN. Results are presented as percent inhibition of Factor XI, relative to untreated control cells.
Substance,Percent inhibition of human Factor XI mRNA levels (human Factor XI mRNA [2]),other results
416853 (antisense eT*eT*eG*eG*eT*dG*d[5mC]*dA*d[5mC]*dA*dG*dT*dT*dT*d[5mC]*eT*eG*eG*e[5mC]*eA) [compound 416853],84%,% inhibition of human Factor XI mRNA levels (human Factor XI mRNA [1]): 91%
416854 (antisense eA*eT*eT*eG*eG*dT*dG*d[5mC]*dA*d[5mC]*dA*dG*dT*dT*dT*e[5mC]*eT*eG*eG*e[5mC]) [compound 416854],86%,% inhibition of human Factor XI mRNA levels (human Factor XI mRNA [1]): 90%
416855 (antisense e[5mC]*eA*eT*eT*eG*dG*dT*dG*d[5mC]*dA*d[5mC]*dA*dG*dT*dT*eT*e[5mC]*eT*eG*eG) [compound 416855],85%,% inhibition of human Factor XI mRNA levels (human Factor XI mRNA [1]): 87%
416862 (antisense eA*eG*e[5mC]*eG*eG*dA*d[5mC]*dG*dG*d[5mC]*dA*dT*dT*dG*dG*eT*eG*e[5mC]*eA*e[5mC]) [compound 416862],89%,% inhibition of human Factor XI mRNA levels (human Factor XI mRNA [1]): 90%
416865 (antisense eT*eG*eG*e[5mC]*eA*dG*d[5mC]*dG*dG*dA*d[5mC]*dG*dG*d[5mC]*dA*eT*eT*eG*eG*eT) [compound 416865],86%,% inhibition of human Factor XI mRNA levels (human Factor XI mRNA [1]): 88%
"445498 (antisense GGTGCACAGTTTCTGGCAGG; 6-8-6 gapmer chemistry, chemistry not fully specified) [compound 445498]",83%,"percent inhibition of Factor XI mRNA (human Factor XI mRNA [3]; electroporation, 123.47 nM): 3%; percent inhibition of Factor XI mRNA (human Factor XI mRNA [3]; electroporation, 370.37 nM): 1%; percent inhibition of Factor XI mRNA (human Factor XI mRNA [3]; electroporation, 1,111.11 nM): 27%; percent inhibition of Factor XI mRNA (human Factor XI mRNA [3]; electroporation, 3,333.33 nM): 50%; percent inhibition of Factor XI mRNA (human Factor XI mRNA [3]; electroporation, 10,000.0 nM): 58%"
"445503 (antisense GCATTGGTGCACAGTTTCTG; 6-8-6 gapmer chemical modifications, chemistry not fully specified) [compound 445503]",89%,"IC50 (human Factor XI mRNA [3]; electroporation): 5.9 µM; percent inhibition of Factor XI mRNA (human Factor XI mRNA [3]; electroporation, 123.47 nM): 0%; percent inhibition of Factor XI mRNA (human Factor XI mRNA [3]; electroporation, 370.37 nM): 0%; percent inhibition of Factor XI mRNA (human Factor XI mRNA [3]; electroporation, 1,111.11 nM): 22%; percent inhibition of Factor XI mRNA (human Factor XI mRNA [3]; electroporation, 3,333.33 nM): 36%; percent inhibition of Factor XI mRNA (human Factor XI mRNA [3]; electroporation, 10,000.0 nM): 60%"
445516 (antisense e[5mC]*eT*eG*eG*e[5mC]*eA*dG*d[5mC]*dG*dG*dA*d[5mC]*dG*dG*e[5mC]*eA*eT*eT*eG*eG) [compound 445516],79%,–
445517 (antisense eA*e[5mC]*eT*eG*eG*e[5mC]*dA*dG*d[5mC]*dG*dG*dA*d[5mC]*dG*eG*e[5mC]*eA*eT*eT*eG) [compound 445517],74%,–
445518 (antisense eA*eG*eT*eT*eT*d[5mC]*dT*dG*dG*d[5mC]*dA*dG*dG*e[5mC]*e[5mC]*eT*e[5mC]*eG) [compound 445518],75%,–
445519 (antisense e[5mC]*eA*eG*eT*eT*dT*d[5mC]*dT*dG*dG*d[5mC]*dA*dG*eG*e[5mC]*e[5mC]*eT*e[5mC]) [compound 445519],81%,–
445520 (antisense eA*e[5mC]*eA*eG*eT*dT*dT*d[5mC]*dT*dG*dG*d[5mC]*dA*eG*eG*e[5mC]*e[5mC]*eT) [compound 445520],82%,–
445521 (antisense e[5mC]*eA*e[5mC]*eA*eG*dT*dT*dT*d[5mC]*dT*dG*dG*d[5mC]*eA*eG*eG*e[5mC]*e[5mC]) [compound 445521],87%,–
445523 (antisense eT*eG*e[5mC]*eA*e[5mC]*dA*dG*dT*dT*dT*d[5mC]*dT*dG*eG*e[5mC]*eA*eG*eG) [compound 445523],73%,–
445524 (antisense eG*eT*eG*e[5mC]*eA*d[5mC]*dA*dG*dT*dT*dT*d[5mC]*dT*eG*eG*e[5mC]*eA*eG) [compound 445524],75%,–
445525 (antisense eG*eG*eT*eG*e[5mC]*dA*d[5mC]*dA*dG*dT*dT*dT*d[5mC]*eT*eG*eG*e[5mC]*eA) [compound 445525],85%,–

Substance,Percent inhibition of human Factor XI mRNA levels (human Factor XI mRNA [2]),other results
445526 (antisense eT*eG*eG*eT*eG*d[5mC]*dA*d[5mC]*dA*dG*dT*dT*dT*e[5mC]*eT*eG*eG*e[5mC]) [compound 445526],81%,–
445527 (antisense eT*eT*eG*eG*eT*dG*d[5mC]*dA*d[5mC]*dA*dG*dT*dT*eT*e[5mC]*eT*eG*eG) [compound 445527],70%,–
445528 (antisense eA*eT*eT*eG*eG*dT*dG*d[5mC]*dA*d[5mC]*dA*dG*dT*eT*eT*e[5mC]*eT*eG) [compound 445528],73%,–
445529 (antisense e[5mC]*eA*eT*eT*eG*dG*dT*dG*d[5mC]*dA*d[5mC]*dA*dG*eT*eT*eT*e[5mC]*eT) [compound 445529],85%,–
445530 (antisense eG*e[5mC]*eA*eT*eT*dG*dG*dT*dG*d[5mC]*dA*d[5mC]*dA*eG*eT*eT*eT*e[5mC]) [compound 445530],83%,–
445533 (antisense eA*e[5mC]*eG*eG*e[5mC]*dA*dT*dT*dG*dG*dT*dG*d[5mC]*eA*e[5mC]*eA*eG*eT) [compound 445533],87%,–
445534 (antisense eG*eA*e[5mC]*eG*eG*d[5mC]*dA*dT*dT*dG*dG*dT*dG*e[5mC]*eA*e[5mC]*eA*eG) [compound 445534],82%,–
445535 (antisense eG*eG*eA*e[5mC]*eG*dG*d[5mC]*dA*dT*dT*dG*dG*dT*eG*e[5mC]*eA*e[5mC]*eA) [compound 445535],83%,–
445536 (antisense e[5mC]*eG*eG*eA*e[5mC]*dG*dG*d[5mC]*dA*dT*dT*dG*dG*eT*eG*e[5mC]*eA*e[5mC]) [compound 445536],82%,–
445537 (antisense eG*e[5mC]*eG*eG*eA*d[5mC]*dG*dG*d[5mC]*dA*dT*dT*dG*eG*eT*eG*e[5mC]*eA) [compound 445537],78%,–
445538 (antisense eA*eG*e[5mC]*eG*eG*dA*d[5mC]*dG*dG*d[5mC]*dA*dT*dT*eG*eG*eT*eG*e[5mC]) [compound 445538],80%,–
445539 (antisense e[5mC]*eA*eG*e[5mC]*eG*dG*dA*d[5mC]*dG*dG*d[5mC]*dA*dT*eT*eG*eG*eT*eG) [compound 445539],79%,–
445540 (antisense eG*e[5mC]*eA*eG*e[5mC]*dG*dG*dA*d[5mC]*dG*dG*d[5mC]*dA*eT*eT*eG*eG*eT) [compound 445540],74%,–
445541 (antisense eG*eG*e[5mC]*eA*eG*d[5mC]*dG*dG*dA*d[5mC]*dG*dG*d[5mC]*eA*eT*eT*eG*eG) [compound 445541],80%,–
445542 (antisense eT*eG*eG*e[5mC]*eA*dG*d[5mC]*dG*dG*dA*d[5mC]*dG*dG*e[5mC]*eA*eT*eT*eG) [compound 445542],83%,–
445543 (antisense e[5mC]*eT*eG*eG*e[5mC]*dA*dG*d[5mC]*dG*dG*dA*d[5mC]*dG*eG*e[5mC]*eA*eT*eT) [compound 445543],74%,–
